# Experiment: cysteine challenge experiment (stability of Re and Tc carborane complexes)
# Assay type: physicochemical
# Conditions: thousand fold excess of cysteine, 1:1 (v/v) phosphate buffer (pH=7.4)-ethanol, 37° C., over 24 hours
# Method: The stability of the Re and Tc carborane complexes were evaluated using a cysteine challenge experiment.^21 Compound 1, for example, was incubated with a thousand fold excess of cysteine in a 1:1 (v/v) phosphate buffer (pH=7.4)-ethanol mixture at 37° C. over 24 hours.
substance,measurement,value
"[NEt4][Re(CO)3(η^5-7,8-C2B9H11)] [Compound 1]","stability (decomposition) in cysteine challenge by HPLC, FTIR and electrospray mass spectrometry",no signs of decomposition
